ChEMBL document CHEMBL3232845 (Bioorg Med Chem Lett, 2014)

How the values were obtained:
Parameters in all cases: scale not given: the % may be the effect or the level left
[1] = target: Ephrin type-A receptor 8 (Homo sapiens) (UniProt P29322); test: Inhibition of human EphA8 assessed as enzyme activity at 1 uM relative to control
[2] = target: Serine/threonine-protein kinase PLK2 (Homo sapiens) (UniProt Q9NYY3); test: Inhibition of human Plk2 assessed as enzyme activity at 1 uM relative to control
[3] = target: Ephrin type-B receptor 1 (Homo sapiens) (UniProt P54762); test: Inhibition of human EphB1 assessed as enzyme activity at 1 uM relative to control
[4] = target: CDK6/cyclin D3 (Homo sapiens) (UniProt P30281+Q00534); test: Inhibition of human CDK6/cyclinD3 assessed as enzyme activity at 1 uM relative to control; format: protein-complex assay
[5] = target: Mitogen-activated protein kinase 9 (Homo sapiens) (UniProt P45984); test: Inhibition of human JNK2alpha2 assessed as enzyme activity at 1 uM relative to control
[6] = target: Dual specificity tyrosine-phosphorylation-regulated kinase 2 (Homo sapiens) (UniProt Q92630); test: Inhibition of human DYRK2 assessed as enzyme activity at 1 uM relative to control
[7] = target: Serine/threonine-protein kinase haspin (Homo sapiens) (UniProt Q8TF76); test: Inhibition of human Haspin assessed as enzyme activity at 1 uM relative to control
[8] = target: Ribosomal protein S6 kinase alpha-5 (Homo sapiens) (UniProt O75582); test: Inhibition of human MSK1 assessed as enzyme activity at 1 uM relative to control
[9] = target: RAC-beta serine/threonine-protein kinase (Homo sapiens) (UniProt P31751); test: Inhibition of human AKT2 assessed as enzyme activity at 1 uM relative to control
[10] = target: Serine/threonine-protein kinase SIK1 (Homo sapiens) (UniProt P57059); test: Inhibition of human SIK assessed as enzyme activity at 1 uM relative to control
[11] = target: NUAK family SNF1-like kinase 1 (Homo sapiens) (UniProt O60285); test: Inhibition of human ARK5 assessed as enzyme activity at 1 uM relative to control
[12] = target: SRSF protein kinase 3 (Homo sapiens) (UniProt Q9UPE1); test: Inhibition of human MSSK1 assessed as enzyme activity at 1 uM relative to control
[13] = target: Ribosomal protein S6 kinase alpha-3 (Homo sapiens) (UniProt P51812); test: Inhibition of human Rsk2 assessed as enzyme activity at 1 uM relative to control
[14] = target: Receptor-interacting serine/threonine-protein kinase 2 (Homo sapiens) (UniProt O43353); test: Inhibition of human RIPK2 assessed as enzyme activity at 1 uM relative to control
[15] = target: Serine/threonine-protein kinase NLK (Homo sapiens) (UniProt Q9UBE8); test: Inhibition of human NLK assessed as enzyme activity at 1 uM relative to control
[16] = target: Homeodomain-interacting protein kinase 2 (Homo sapiens) (UniProt Q9H2X6); test: Inhibition of human HIPK2 assessed as enzyme activity at 1 uM relative to control
[17] = target: Ephrin type-B receptor 3 (Homo sapiens) (UniProt P54753); test: Inhibition of human EphB3 assessed as enzyme activity at 1 uM relative to control
[18] = target: Tyrosine-protein kinase TXK (Homo sapiens) (UniProt P42681); test: Inhibition of human Txk assessed as enzyme activity at 1 uM relative to control
[19] = target: Tyrosine-protein kinase receptor UFO (Homo sapiens) (UniProt P30530); test: Inhibition of human Axl assessed as enzyme activity at 1 uM relative to control
[20] = target: Casein kinase I isoform gamma-1 (Homo sapiens) (UniProt Q9HCP0); test: Inhibition of human CK1gamma1 assessed as enzyme activity at 1 uM relative to control
[21] = target: Vascular endothelial growth factor receptor 3 (Homo sapiens) (UniProt P35916); test: Inhibition of human Flt4 assessed as enzyme activity at 1 uM relative to control
[22] = target: Calcium/calmodulin-dependent protein kinase type 1D (Homo sapiens) (UniProt Q8IU85); test: Inhibition of human CAMK1d assessed as enzyme activity at 1 uM relative to control
[23] = target: mTOR/FKBP12A/FKBP12B (Homo sapiens) (UniProt P62942+P68106+P42345); test: Inhibition of human mTOR/FKBP12 assessed as enzyme activity at 1 uM relative to control; format: protein-complex assay
[24] = target: ALK tyrosine kinase receptor (Homo sapiens) (UniProt Q9UM73); test: Inhibition of human ALK assessed as enzyme activity at 1 uM relative to control
[25] = target: Serine/threonine-protein kinase mTOR (Homo sapiens) (UniProt P42345); test: Inhibition of human mTOR assessed as enzyme activity at 1 uM relative to control
[26] = target: Serine/threonine-protein kinase Nek2 (Homo sapiens) (UniProt P51955); test: Inhibition of human NEK2 assessed as enzyme activity at 1 uM relative to control
[27] = target: Tyrosine-protein kinase SYK (Homo sapiens) (UniProt P43405); test: Inhibition of human Syk assessed as enzyme activity at 1 uM relative to control
[28] = target: Ephrin type-B receptor 4 (Homo sapiens) (UniProt P54760); test: Inhibition of human EphB4 assessed as enzyme activity at 1 uM relative to control
[29] = target: Serine/threonine-protein kinase Nek3 (Homo sapiens) (UniProt P51956); test: Inhibition of human NEK3 assessed as enzyme activity at 1 uM relative to control
[30] = target: RAF proto-oncogene serine/threonine-protein kinase (Homo sapiens) (UniProt P04049); test: Inhibition of human c-RAF assessed as enzyme activity at 1 uM relative to control
[31] = target: Fibroblast growth factor receptor 2 (Homo sapiens) (UniProt P21802); test: Inhibition of human FGFR2 assessed as enzyme activity at 1 uM relative to control
[32] = target: Serine/threonine-protein kinase Nek7 (Homo sapiens) (UniProt Q8TDX7); test: Inhibition of human NEK7 assessed as enzyme activity at 1 uM relative to control
[33] = target: Mitogen-activated protein kinase kinase kinase 9 (Homo sapiens) (UniProt P80192); test: Inhibition of human MLK1 assessed as enzyme activity at 1 uM relative to control
[34] = target: Serine/threonine-protein kinase 10 (Homo sapiens) (UniProt O94804); test: Inhibition of human LOK assessed as enzyme activity at 1 uM relative to control
[35] = target: Interleukin-1 receptor-associated kinase 4 (Homo sapiens) (UniProt Q9NWZ3); test: Inhibition of human IRAK4 assessed as enzyme activity at 1 uM relative to control
[36] = target: Dual specificity protein kinase CLK3 (Homo sapiens) (UniProt P49761); test: Inhibition of human CLK3 assessed as enzyme activity at 1 uM relative to control
[37] = target: Myosin light chain kinase, smooth muscle (Homo sapiens) (UniProt Q15746); test: Inhibition of human MYLK assessed as enzyme activity at 1 uM relative to control
Myosin light chain kinase, smooth muscle (Homo sapiens), sequence (Q15746 whole entry): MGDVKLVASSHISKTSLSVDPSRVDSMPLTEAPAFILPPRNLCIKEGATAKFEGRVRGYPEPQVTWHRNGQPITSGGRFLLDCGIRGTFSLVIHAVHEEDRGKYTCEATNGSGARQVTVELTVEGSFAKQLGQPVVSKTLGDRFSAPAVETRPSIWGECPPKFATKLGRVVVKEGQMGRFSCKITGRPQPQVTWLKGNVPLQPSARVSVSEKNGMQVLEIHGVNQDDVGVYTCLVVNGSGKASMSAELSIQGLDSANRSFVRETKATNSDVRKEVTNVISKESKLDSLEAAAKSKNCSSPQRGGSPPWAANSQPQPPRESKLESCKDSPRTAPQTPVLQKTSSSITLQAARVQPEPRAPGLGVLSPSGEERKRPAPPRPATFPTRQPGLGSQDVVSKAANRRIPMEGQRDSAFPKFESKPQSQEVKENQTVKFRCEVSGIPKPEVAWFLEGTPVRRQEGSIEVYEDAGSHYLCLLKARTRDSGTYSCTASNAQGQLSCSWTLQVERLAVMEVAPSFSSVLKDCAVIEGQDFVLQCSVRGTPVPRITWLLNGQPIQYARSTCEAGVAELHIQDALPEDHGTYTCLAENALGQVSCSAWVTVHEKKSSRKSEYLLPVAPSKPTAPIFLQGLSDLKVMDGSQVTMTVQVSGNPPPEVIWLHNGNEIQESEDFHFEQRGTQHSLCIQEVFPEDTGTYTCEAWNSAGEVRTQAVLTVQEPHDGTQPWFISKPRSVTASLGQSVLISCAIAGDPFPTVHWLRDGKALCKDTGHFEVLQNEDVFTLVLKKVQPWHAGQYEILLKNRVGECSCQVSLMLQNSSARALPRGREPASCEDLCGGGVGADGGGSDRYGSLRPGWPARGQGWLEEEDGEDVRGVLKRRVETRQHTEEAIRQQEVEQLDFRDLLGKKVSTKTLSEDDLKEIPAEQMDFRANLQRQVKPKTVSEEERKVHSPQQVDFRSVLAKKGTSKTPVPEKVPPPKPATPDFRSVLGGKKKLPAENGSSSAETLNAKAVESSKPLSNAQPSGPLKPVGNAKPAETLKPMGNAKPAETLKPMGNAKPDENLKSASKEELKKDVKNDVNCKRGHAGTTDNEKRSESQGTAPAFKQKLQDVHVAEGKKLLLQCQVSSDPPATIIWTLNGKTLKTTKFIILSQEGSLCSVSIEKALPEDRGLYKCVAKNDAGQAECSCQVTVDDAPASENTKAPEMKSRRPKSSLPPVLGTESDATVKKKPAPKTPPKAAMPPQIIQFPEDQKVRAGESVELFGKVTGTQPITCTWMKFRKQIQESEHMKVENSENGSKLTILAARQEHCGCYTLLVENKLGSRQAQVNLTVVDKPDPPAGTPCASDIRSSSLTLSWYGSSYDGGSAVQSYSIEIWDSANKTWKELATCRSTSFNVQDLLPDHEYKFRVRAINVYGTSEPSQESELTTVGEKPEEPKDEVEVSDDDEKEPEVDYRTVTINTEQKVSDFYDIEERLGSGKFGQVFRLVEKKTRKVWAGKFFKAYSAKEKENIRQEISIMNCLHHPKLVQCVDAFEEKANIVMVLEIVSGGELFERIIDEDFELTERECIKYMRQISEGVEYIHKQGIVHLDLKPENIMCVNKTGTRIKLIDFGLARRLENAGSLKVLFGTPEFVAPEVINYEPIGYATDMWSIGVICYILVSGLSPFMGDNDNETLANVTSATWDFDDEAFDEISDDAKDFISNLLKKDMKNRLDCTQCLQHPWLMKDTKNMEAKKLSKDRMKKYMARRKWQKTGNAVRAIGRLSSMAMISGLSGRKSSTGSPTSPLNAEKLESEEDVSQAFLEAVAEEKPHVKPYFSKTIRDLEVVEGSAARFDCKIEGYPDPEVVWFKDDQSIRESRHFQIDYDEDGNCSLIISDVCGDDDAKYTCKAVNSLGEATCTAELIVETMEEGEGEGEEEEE

Serine/threonine-protein kinase NLK (Homo sapiens), sequence (Q9UBE8 whole entry): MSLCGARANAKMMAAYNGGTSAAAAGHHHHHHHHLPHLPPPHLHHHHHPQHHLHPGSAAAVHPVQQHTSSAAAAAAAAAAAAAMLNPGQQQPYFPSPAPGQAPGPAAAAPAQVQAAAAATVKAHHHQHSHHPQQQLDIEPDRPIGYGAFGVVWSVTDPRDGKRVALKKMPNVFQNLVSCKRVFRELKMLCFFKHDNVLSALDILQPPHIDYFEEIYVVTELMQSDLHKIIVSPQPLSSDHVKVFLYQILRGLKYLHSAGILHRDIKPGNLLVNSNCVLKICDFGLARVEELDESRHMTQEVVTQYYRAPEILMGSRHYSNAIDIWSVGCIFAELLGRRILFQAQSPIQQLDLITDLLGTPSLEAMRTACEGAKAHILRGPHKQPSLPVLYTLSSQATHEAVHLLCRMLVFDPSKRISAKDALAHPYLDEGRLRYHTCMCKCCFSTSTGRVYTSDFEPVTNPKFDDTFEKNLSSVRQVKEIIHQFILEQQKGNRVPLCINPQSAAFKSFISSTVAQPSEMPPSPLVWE
Ephrin type-B receptor 1 (Homo sapiens), sequence (P54762 whole entry): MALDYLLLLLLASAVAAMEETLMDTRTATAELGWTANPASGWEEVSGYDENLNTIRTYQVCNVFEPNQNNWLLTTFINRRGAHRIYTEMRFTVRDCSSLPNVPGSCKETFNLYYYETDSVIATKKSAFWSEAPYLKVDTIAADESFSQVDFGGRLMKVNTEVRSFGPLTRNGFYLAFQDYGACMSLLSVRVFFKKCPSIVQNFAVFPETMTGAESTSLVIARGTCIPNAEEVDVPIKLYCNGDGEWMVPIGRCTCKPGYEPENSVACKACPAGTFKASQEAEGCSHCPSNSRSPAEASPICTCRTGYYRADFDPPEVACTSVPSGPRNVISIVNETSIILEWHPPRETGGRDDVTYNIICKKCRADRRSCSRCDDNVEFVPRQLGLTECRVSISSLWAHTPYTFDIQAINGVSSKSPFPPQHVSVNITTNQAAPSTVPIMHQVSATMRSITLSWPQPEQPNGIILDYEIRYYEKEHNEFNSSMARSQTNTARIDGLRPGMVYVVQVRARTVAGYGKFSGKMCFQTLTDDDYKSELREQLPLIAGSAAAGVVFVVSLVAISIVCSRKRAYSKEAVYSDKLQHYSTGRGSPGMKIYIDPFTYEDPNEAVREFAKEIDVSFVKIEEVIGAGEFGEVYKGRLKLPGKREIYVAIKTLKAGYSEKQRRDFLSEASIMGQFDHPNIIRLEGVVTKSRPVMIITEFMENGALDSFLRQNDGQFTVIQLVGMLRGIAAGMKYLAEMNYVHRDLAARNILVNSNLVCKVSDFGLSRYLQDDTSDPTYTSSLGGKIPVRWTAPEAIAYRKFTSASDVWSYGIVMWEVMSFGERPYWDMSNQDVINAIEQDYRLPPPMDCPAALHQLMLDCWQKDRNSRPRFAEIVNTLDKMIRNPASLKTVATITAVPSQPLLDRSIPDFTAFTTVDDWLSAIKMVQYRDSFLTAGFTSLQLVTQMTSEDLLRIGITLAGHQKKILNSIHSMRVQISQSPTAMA
Serine/threonine-protein kinase haspin (Homo sapiens), sequence (Q8TF76 whole entry): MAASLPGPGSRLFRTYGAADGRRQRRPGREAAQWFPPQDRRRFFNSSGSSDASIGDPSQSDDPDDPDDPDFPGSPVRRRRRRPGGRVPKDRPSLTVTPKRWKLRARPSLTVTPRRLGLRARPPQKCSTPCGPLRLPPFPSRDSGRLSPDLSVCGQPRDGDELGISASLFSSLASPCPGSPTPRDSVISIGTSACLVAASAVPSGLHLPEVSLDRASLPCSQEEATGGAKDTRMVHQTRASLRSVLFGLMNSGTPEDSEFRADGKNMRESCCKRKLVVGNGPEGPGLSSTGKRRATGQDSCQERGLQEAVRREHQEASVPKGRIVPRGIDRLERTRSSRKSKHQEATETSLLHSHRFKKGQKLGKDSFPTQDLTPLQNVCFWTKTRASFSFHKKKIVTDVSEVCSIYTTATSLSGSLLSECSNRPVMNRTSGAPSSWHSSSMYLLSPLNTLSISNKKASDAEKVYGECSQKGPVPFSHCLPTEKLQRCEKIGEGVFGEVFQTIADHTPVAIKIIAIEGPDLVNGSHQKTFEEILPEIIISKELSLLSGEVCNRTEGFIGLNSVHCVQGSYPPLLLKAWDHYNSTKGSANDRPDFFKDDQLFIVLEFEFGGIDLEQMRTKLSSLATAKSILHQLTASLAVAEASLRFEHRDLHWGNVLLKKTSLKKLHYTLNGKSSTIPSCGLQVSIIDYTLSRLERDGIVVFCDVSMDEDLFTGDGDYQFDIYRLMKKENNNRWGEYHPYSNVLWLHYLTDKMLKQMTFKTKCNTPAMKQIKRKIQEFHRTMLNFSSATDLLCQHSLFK
Mitogen-activated protein kinase 9 (Homo sapiens), sequence (P45984 whole entry, looked up): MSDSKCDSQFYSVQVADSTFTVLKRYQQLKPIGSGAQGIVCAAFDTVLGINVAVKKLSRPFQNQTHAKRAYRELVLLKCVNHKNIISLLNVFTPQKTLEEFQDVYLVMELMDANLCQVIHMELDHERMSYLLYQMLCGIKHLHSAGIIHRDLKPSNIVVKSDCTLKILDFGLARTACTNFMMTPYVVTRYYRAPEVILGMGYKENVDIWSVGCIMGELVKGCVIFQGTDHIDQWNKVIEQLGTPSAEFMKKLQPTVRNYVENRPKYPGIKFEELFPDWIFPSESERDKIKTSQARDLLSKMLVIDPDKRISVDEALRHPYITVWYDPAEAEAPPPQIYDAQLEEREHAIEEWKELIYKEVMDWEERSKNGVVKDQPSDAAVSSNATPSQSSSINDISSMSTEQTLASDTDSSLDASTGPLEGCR
Serine/threonine-protein kinase Nek2 (Homo sapiens), sequence (P51955 whole entry): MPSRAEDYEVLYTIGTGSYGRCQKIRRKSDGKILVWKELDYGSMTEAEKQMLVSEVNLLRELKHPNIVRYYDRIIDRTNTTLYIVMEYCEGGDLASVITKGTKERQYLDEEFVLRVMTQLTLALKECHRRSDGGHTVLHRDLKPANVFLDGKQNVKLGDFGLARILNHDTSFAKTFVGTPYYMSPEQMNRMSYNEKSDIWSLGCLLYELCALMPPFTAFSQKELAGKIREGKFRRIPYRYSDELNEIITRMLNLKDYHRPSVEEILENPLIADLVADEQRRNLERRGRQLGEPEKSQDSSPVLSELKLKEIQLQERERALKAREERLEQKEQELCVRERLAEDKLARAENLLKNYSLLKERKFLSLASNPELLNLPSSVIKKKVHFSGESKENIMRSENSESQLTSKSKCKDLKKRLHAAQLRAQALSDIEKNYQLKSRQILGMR

Activity [1]: 96%
Activity [2]: 102%
Activity [3]: 101%
Activity [4]: 104%
Activity [5]: 106%
Activity [6]: 99%
Activity [7]: 99.5%
Activity [8]: 132%
Activity [9]: 154%
Activity [10]: 143%
Activity [11]: 109%
Activity [12]: 115%
Activity [13]: 121%
Activity [14]: 98%
Activity [15]: 102%
Activity [16]: 100%
Activity [17]: 91.5%
Activity [18]: 104%
Activity [19]: 93%
Activity [20]: 104%
Activity [21]: 79.5%
Activity [22]: 116%
Activity [23]: 104%
Activity [24]: 104%
Activity [25]: 101%
Activity [26]: 116%
Activity [27]: 117%
Activity [28]: 104%
Activity [29]: 112%
Activity [30]: 1.5%
Activity [31]: 99.5%
Activity [32]: 110%
Activity [33]: 90%
Activity [34]: 40.5%
Activity [35]: 106%
Activity [36]: 96%
Activity [37]: 106%
SMILES: CCCS(=O)(=O)Nc1cccc(Nc2ccc3ncn(C)c(=O)c3c2)c1C#N
